The values below come from patent publication EP1409500B1, “ALKYLATED INOSITOLGLYCANS AND THEIR USES” (Rodaris Pharmaceuticals Limited, priority 2000, dated 2001).

For assay [1], the system named is PKA. Put plainly: PKA inhibition assay. It counts as biochemical. From the text: (§1) Methods for obtaining A-type and P-type mediators are set out in Caro et al, 1997, and in WO98/11116 and WO98/11117. Protocols for determining characteristic IPG biological activities such as PDH activation, PKA inhibition, acetylCoA activation, fructose-1,6-bis-phosphatase activity and lipogenesis are well known in the art, e.g. as described in Caro et al^[14].
(§2) The compounds of the invention can be tested for one or more the characteristic IPG-P and/or IPG-A activities mentioned above to determine whether they will be suitable for use a IPG mimetics or antagonists. Preferred assays measure the effect of the compounds on PDH phosphatase, PKA or lipogenesis. Protocols for these assays are provided in Caro et al ^[14]. The compounds can also be tested to determine whether they activate or inhibit other enzymes involved in insulin signalling mechanism, such as glucose-6-phosphatase.

The test system of assay [2] is PDH phosphatase. Put plainly: PDH phosphatase activation assay. As to conditions: 100µM. It is filed as biochemical.
Text: as §1, §2
In particular, preferred compounds having 1,6 linkages are good activators of PDH phosphatase activity.

`CO[C@H]1[C@H](O)[C@@H](O)[C@@H](O[C@@H]2O[C@H](CO)[C@@H](O)[C@H](O)[C@H]2N)[C@H](O)[C@@H]1O` [RGL1015, O-(2-amino-2-deoxy-D-glucopyranosyl)-β(1,6)-D-3-O-methyl-chiro-inositol.]: the PKA % inhibition amounted to 14% in assay [1] (0.1µM) and 15% in assay [1] (1µM). In assay [2], this compound showed a PDH % activation of 38%.
Turning to `CO[C@H]1[C@H](O)[C@@H](O)[C@@H](O[C@H]2O[C@H](CO)[C@@H](O)[C@H](O)[C@H]2N)[C@H](O)[C@@H]1O` [RGL1024, O-(2-amino-2-deoxy-D-glucopyranosyl)-α(1,6)-D-3-O-methyl-chiro-inositol.], the PKA % inhibition in assay [1] (0.1µM) was determined as 17%; in assay [1] (1µM) it was 34%; in assay [1] (10µM) it was 2%. The compound further displayed a PDH % activation in assay [2] of 65%.
As for `CO[C@H]1[C@H](O)[C@@H](O)[C@@H](O[C@H]2O[C@H](CO)[C@H](O)[C@H](O)[C@H]2N)[C@H](O)[C@@H]1O` [RGL1025, O-(2-amino-2deoxy-D-galactopyranosyl)-α(1,6)-D-3-O-methyl-chiro-inositol.], the results for the PKA % inhibition in assay [1] (0.1µM) and in assay [1] (1µM) were 48% and -13%, respectively. In assay [2], this compound yielded a PDH % activation of 17%.
